These results are taken from patent US8314215B2, “Mild chemically cleavable linker system” (The Board of Trustees of the Leland Stanford Junior …, priority 2006, dated 2012).

Common to all, as to assay: LC/MS/MS identification of proteins from mouse liver extracts labeled with MTS-I-49
Holding throughout (format): biochemical

The target in experiment [1] is T1, methionine adenosyltransferase 1 (Mus musculus, UniProt Q91X83).
T1 construct: from tissue; host or cells: mouse liver extract
An excerpt:
(§1) (1991) Irreversible inhibition of serine proteases by peptide derivatives of (alpha-aminoalkyl)phosphonate diphenyl esters. Biochemistry 30, 485-493). However, it has not been used for any proteomic applications. We used MTS-I-49 to label mouse liver extracts and analyze the labeled sample by both SDS-PAGE (FIG. 5B) and by direct chemical cleavage or on bead digestion.
(§2) After enrichment on immobilized avidin, each of the three labeled proteomes (FIG. 5b) was divided into two aliquots. One was prepared for LC-MS/MS analysis by “on bead” digestion, while the other was chemically eluted and digested “in solution.” Proteins identified in each tissue lysate are listed with their accession number and theoretical molecular weight (MW). To compare both approaches, the number of identified peptides and percentage of amino acid sequence coverage is listed for each protein.
(§3) Proteins in the above Table were identified by LC/MS/MS analysis of on bead digested or chemically eluted proteins from mouse liver extracts labeled with MTS-I-49. […] BLAST database searching identified it as liver carboxylesterase 4. A number of additional endogenously biotinylated proteins were identified in the on-bead digested sample.

Experiment [2] has as its target T2, carbamoyl-phosphate synthase 1 (Mus musculus, UniProt Q8C196).
T2 construct: from tissue; host or cells: mouse liver extract
T2 sequence (Q8C196 39-1500): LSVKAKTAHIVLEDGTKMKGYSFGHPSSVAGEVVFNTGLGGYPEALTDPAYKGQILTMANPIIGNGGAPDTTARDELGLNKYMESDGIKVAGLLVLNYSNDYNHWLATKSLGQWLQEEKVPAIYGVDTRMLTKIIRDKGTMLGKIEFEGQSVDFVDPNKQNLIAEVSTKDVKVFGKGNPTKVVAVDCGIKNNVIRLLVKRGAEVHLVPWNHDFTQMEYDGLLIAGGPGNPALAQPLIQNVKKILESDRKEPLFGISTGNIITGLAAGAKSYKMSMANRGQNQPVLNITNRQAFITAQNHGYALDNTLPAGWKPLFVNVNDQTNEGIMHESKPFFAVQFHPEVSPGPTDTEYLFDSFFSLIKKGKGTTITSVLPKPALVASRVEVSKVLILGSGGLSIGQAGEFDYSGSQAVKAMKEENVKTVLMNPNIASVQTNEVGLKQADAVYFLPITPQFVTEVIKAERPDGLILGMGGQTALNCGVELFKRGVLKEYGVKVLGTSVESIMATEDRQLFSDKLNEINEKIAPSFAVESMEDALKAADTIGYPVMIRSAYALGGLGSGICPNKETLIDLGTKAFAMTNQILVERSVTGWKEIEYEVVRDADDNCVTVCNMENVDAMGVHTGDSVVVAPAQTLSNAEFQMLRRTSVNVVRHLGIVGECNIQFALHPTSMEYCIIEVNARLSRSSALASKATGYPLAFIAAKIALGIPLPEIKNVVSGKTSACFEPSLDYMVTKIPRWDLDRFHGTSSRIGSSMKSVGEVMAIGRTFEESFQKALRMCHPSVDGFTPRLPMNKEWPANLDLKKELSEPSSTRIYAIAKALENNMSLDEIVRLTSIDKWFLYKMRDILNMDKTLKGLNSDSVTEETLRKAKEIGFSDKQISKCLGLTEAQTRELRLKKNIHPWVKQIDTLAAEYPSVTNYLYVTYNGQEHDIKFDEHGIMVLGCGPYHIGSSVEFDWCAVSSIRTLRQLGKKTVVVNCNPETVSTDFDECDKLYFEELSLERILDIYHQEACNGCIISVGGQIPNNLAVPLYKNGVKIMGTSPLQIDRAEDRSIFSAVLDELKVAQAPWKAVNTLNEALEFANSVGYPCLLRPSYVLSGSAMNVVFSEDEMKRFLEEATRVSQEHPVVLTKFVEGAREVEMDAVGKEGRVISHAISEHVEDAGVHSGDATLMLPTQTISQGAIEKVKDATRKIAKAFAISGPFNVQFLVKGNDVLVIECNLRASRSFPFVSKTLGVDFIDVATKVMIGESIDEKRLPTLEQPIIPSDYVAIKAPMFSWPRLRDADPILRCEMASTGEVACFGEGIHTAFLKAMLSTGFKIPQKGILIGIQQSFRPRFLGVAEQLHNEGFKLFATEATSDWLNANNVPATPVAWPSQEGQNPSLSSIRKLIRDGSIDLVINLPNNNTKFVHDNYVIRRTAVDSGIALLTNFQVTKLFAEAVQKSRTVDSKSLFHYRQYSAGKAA
Description: as §1, §2, §3

The next experiment has as its target T3, albumin 1 (Mus musculus, UniProt P07724).
T3 construct: from tissue; host or cells: mouse liver extract
Description: as §1, §2, §3

For experiment [3], the target named is T4, acetyl-Coenzyme acyltransferase 2 (Mus musculus, UniProt Q8BWT1).
T4 construct: from tissue; host or cells: mouse liver extract
T4 sequence (Q8BWT1 1-397): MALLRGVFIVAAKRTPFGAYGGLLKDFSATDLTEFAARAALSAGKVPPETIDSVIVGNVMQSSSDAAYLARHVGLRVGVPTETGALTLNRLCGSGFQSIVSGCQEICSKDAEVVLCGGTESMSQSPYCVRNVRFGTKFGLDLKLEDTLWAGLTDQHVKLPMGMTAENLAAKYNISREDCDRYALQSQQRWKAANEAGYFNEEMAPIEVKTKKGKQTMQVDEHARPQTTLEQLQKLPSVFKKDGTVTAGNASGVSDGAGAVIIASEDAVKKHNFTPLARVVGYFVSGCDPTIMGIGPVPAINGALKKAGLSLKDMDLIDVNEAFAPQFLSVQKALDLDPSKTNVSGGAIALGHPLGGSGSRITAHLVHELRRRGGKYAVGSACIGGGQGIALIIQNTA
Description: as §1, §2, §3

Experiment [4] deals with T5, glycine N-methyltransferase (Mus musculus, UniProt Q9QXF8).
T5 construct: from tissue; host or cells: mouse liver extract
T5 sequence (Q9QXF8 1-293): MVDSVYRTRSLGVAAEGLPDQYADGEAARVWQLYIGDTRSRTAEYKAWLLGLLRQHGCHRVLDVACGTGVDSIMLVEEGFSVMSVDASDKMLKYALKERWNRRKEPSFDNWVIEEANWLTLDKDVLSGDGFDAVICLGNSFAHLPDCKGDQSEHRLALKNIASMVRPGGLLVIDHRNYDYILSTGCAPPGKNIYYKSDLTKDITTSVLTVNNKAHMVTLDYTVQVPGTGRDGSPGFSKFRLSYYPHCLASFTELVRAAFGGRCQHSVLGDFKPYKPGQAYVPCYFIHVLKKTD
Description: as §1, §2, §3

The subject of experiment [5] is 3-hydrozy-3-methylglutaryl-coenzyme A-synthase.
Description: as §1, §2, §3

[6] abbreviates: chemically eluted, digested in solution.

T3 sequence (P07724 25-608): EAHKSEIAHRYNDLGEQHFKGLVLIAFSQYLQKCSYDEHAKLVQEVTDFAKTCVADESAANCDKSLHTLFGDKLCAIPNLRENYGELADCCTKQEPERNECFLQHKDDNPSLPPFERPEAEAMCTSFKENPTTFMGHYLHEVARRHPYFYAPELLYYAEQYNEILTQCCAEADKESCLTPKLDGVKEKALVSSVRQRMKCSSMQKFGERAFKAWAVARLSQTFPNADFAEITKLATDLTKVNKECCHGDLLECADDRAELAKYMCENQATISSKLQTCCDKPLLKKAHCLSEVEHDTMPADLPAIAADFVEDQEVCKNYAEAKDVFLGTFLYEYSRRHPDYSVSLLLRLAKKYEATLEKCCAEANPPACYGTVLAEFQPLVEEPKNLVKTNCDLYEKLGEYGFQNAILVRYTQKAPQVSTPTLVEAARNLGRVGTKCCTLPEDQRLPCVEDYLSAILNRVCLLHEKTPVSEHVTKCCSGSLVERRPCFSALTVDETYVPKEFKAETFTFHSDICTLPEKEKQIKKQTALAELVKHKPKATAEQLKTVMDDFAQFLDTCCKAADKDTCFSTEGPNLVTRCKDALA
T1 sequence (Q91X83 whole entry): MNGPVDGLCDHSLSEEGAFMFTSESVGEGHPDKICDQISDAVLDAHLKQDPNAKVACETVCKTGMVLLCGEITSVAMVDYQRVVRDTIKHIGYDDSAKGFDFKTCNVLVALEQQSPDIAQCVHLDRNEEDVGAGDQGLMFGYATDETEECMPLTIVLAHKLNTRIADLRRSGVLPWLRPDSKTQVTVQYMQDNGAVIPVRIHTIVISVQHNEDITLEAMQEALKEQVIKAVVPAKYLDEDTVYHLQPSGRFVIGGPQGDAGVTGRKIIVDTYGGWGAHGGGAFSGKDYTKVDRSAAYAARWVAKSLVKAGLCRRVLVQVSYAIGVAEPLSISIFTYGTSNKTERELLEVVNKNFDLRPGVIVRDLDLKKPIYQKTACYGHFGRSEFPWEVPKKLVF

As for `C[C@H](NC(=O)c1ccc(N=Nc2cc(CCNC(=O)CCCC[C@@H]3SC[C@@H]4NC(=O)N[C@@H]43)ccc2O)cc1)C(=O)N[C@@H](C)C(=O)NC(Cc1ccccc1)P(=O)(Oc1ccccc1)Oc1ccccc1` (stereo partly shown) [MTS-I-49], the “Chemical Cleavage, number of identified peptides” value in experiment [1] (setting [6]) was found to be 0; in experiment [2] (setting [6]), 0; on albumin 1 (setting [6]), 0; in experiment [3] (setting [6]), 2; in experiment [4] (setting [6]) it was 0; in experiment [5] (setting [6]), 0. Moreover, the “On Bead Digestion, amino acid sequence coverage” value in experiment [1] (on bead digestion) is 9%; in experiment [2] (on bead digestion) it was 2 (2%); on albumin 1 (on bead digestion), 6%; in experiment [3] (on bead digestion) it was 26%; in experiment [4] (on bead digestion), 10%; in experiment [5] (on bead digestion) it was 6%. In addition, the “On Bead Digestion, number of identified peptides” value in experiment [1] (on bead digestion) was 2; in experiment [2] (on bead digestion) it was 2 (2%); on albumin 1 (on bead digestion), 2; in experiment [3] (on bead digestion) it was 5; in experiment [4] (on bead digestion), 2; in experiment [5] (on bead digestion) it was 2. Also, the “Chemical Cleavage, amino acid sequence coverage” value in experiment [3] (setting [6]) is listed as 15%.
